{"source": "patent US20040147595A1", "about": "“Biofilm degrading or sloughing compositions and methods” (priority 2001, published 2004)", "system": "P. aeruginosa protein synthesis", "assay": "Constitutive Gfp-expression (pMH306) in PAO1, protein synthesis control", "format": "cell-based, Pseudomonas aeruginosa", "conditions": "PAO1 with pMH306, furanone 0 to 10 μ/ml; data not shown", "protocol": "To determine if the furanone compound worked specifically on the las quorum sensor and not indirectly by disruption of primary metabolic functions, we followed growth as optical density of P. aeruginosa PAO1 in the presence of furanone 56. […] Further, we tested whether the furanone affected P. aeruginosa protein synthesis. The wild type P. aeruginosa PAO1 strain containing the consitutive Gfp-expression vector pMH306 was grown in the presence of furanone 56 at concentrations from 0 to 10 μ/ml. Gfp-expression (fluorescence/OD600 nm) was throughout the growth cycle unaffected by the presence of furanone compound (data not shown)."}
{"smiles": "O=C1C=C/C(=C/Br)O1", "note": "[furanone 56]", "values": [{"measurement": "Gfp-expression (fluorescence/OD600 nm) throughout the growth cycle", "value": "unaffected"}]}
